Patent publication US8440893B2, “Therapeutic agent for rheumatoid arthritis” (St. Marianna University School of Medicine, priority 2006, dated 2013)

What was measured:
macrophages = experiment: Inflammatory cytokine production (ELISA), macrophages; assay type: cell-based, human; settings: for Concentration of cytokines produced by macrophage, IL-1β: medium only 8.1; for Concentration of cytokines produced by macrophage, TNF-α: medium only 122
Procedure: After obtaining informed consent, 50 mL of blood was collected from healthy individuals, and 1% heparin-added blood was acquired. Centrifuge tubes in which this blood was layered on top of a lymphocyte separation liquid were centrifuged at 1500 rpm for 30 minutes to isolate lymphocytes and macrophages individually. The cells were cultured using an RPMI medium supplemented with inactivated fetal bovine serum (FBS, manufactured by TRACE) at 10% of the medium volume, and also with 2 mM L-glutamine, 25 mM HEPES, and 100 units/mL of penicillin and streptomycin, in a CO2 incubator set at 5% CO2+95% air (normoxic conditions) at 37° C. under saturated humidity.
Effects of C60 on the production of inflammatory cytokines in each type of cell were analyzed using the enzyme-linked immunosorbent assay method (ELISA).
Each type of cell that was isolated and cultured to subconfluency by the above method was seeded into a 24-well culture plate at 1×10^5 cells/well. After culturing for 12 hours, the cells were washed with PBS, the medium was exchanged to fresh DMEM containing 10% FBS, and tumor necrosis factor TNF-α was added. The concentration of C60 treatment was 0.1, 1.0, or 10.0 μM, and the concentration of TNF-α treatment was 10.0 ng/mL. Each type of cell was cultured with C60 for 24 hours in the presence or absence of TNF-α, and then the culture solution was collected.
The concentrations of inflammatory cytokines TNF-α and interleukin (IL)-1β in the culture supernatant were determined using a ELISA kit, which is a standard technique currently known in the art. The ELISA was performed by the following standard method: the diluted culture supernatant sample was added into a sensitized plate at 100 μl per well, and the plate was left still for one hour at room temperature (primary reaction). After the primary reaction, the wells were sufficiently washed with PBS using a wash bottle four times or more. Horseradish peroxidase (HRP)-labeled goat anti-rabbit IgG (H+L) antibodies that have been diluted 3,000-folds with 0.1% Tween20-PBS were dispensed into the respective wells at 100 μl each, and the plate was left still for one hour at room temperature (secondary reaction). After the secondary reaction, the wells were washed with PBS in the same manner, and then 0.8 mM TMB (Tetramethylbenzidine) solution was added thereto at 100 μl per well, to effect color development at 30° C. for five to 20 minutes (color reaction). 100 μl of 1.5 N H3PO4 was added to each well to stop the color reaction, and the absorbance at 450 nm was measured using a microtiter plate reader. According to the instructions provided by the manufacturer, the measured concentrations were calibrated using a lyophilized control reagent.
(§1) SOD (final concentration: 10 or 100 μM) or vitamin C (final concentration: 10 or 100 μM) was added to DMEM medium. The level of inflammatory cytokines produced by macrophages and the osteoclast differentiation ability were measured by the methods of Examples 1-3 and 2-2 described above, respectively, and compared to the results obtained with C60 (10 μM) (Table 1).

[1] = Antioxidative ability (kit utilizing the redox reaction of copper); assay type: biochemical
Procedure: Various concentrations of C60, SOD, and vitamin C solutions were prepared (solvent: DEME medium, SOD (10, and 100 μM), C60 (1, 10, and 100 μM), vitamin C (100 μM)), and the antioxidative ability of each was determined using a kit for measuring antioxidative ability (OXIS Health Product, Oregon, USA) which utilizes the redox reaction of copper.

[2] = test system: osteoclast precursor cells; experiment: Osteoclast differentiation (TRAP staining of TRAP-positive multinucleated giant cells); assay type: cell-based; settings: medium only 78
Procedure: An osteoclast precursor cell culture kit (Cell Garage Co. Ltd.) was used to observe the effect of C60 on the differentiation of osteoclast precursor cells to mature osteoclasts.
Using the above-mentioned osteoclast precursor cell culture kit, osteoclast precursor cells were cultured on a chamber slide in the presence of osteoclast differentiation-inducing factors. C60 was added to the medium at a final concentration of 0.1, 1.0, or 10.0 μM, and the cells were cultured for seven days. The medium, including various additional factors, was changed to a fresh one every three days. On the seventh day, TRAP-positive multinucleated giant cells, which serve as an index of osteoclast differentiation, were observed by TRAP staining (Cell Garage AK04 Lot: FEM).
The TRAP staining method was carried out as follows. First, after confirming the formation of osteoclasts, the culture solution was removed, and the cells were washed with PBS at 100 μL/well. Next, a fixative solution (kit) was added at 50 μL/well and reacted for five minutes at room temperature. Then, the fixative solution was removed, and the cells were subjected to three washes using 250 μL/well of deionized distilled water (DDW). One vial of chromogenic substrate was dissolved by adding 5 mL of buffer to prepare a color developing solution. The above color developing solution was added at 50 μL/well and then incubated at 37° C. for 20 minutes. After confirming the color development, the color developing solution was removed, and the reaction was stopped using 250 μL/well of DDW. After washing with DDW three times in total, the wells were removed, and the slide was mounted with a water-soluble mounting medium (NUNK 178599 16-well chamber slides were used).
as §1

Compound	Concentration of cytokines produced by macrophage, IL-1β (macrophages; added antioxidant 10 μM) [ng/ml/1 × 10^5 cells]	Concentration of cytokines produced by macrophage, TNF-α (macrophages; added antioxidant 10 μM) [ng/ml/1 × 10^5 cells]	Concentration of cytokines produced by macrophage, IL-1β (macrophages; added antioxidant 100 μM) [ng/ml/1 × 10^5 cells]	Concentration of cytokines produced by macrophage, TNF-α (macrophages; added antioxidant 100 μM) [ng/ml/1 × 10^5 cells]	ratio to the antioxidative ability of vitamin C (100 μM) ([1]; substance at 10 μM)	ratio to the antioxidative ability of vitamin C (100 μM) ([1]; substance at 100 μM)	Osteoclast differentiation ([2]; added antioxidant 10 μM)	Osteoclast differentiation ([2]; added antioxidant 100 μM)
Superoxide dismutase [SOD]	9.0	130	7.8	106	approximately two-fold	approximately 8 fold	82 TRAP-positive multinucleated giant cells/well	75 TRAP-positive multinucleated giant cells/well
O=C1O[C@H]([C@@H](O)CO)C(O)=C1O [Vitamin C, vitamin C]	6.9	116	7.5	115	–	–	94 TRAP-positive multinucleated giant cells/well	82 TRAP-positive multinucleated giant cells/well
